Measurements: PubChem BioAssay (NCI)
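In this assay, cells in 96-well plates receive the compound at five concentrations for 48 hours. Endpoints are linearly interpolated between the surrounding concentrations. Abbreviation: GI50, concentration required for 50% inhibition of growth. TGI marks complete inhibition of growth.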 Where a SMILES comes first, the peptide text is derived from it. [ ]: non-standard residue; d: D form. pGlu = O=C1CC[CH](C(=O)O)N1

Experiments:
Test in all cases: NCI anticancer screen, dose series, 48 h
[1] = tested on: 786-0 renal
[2] = tested on: T-47D breast
[3] = tested on: M14 melanoma
[4] = tested on: NCI/ADR-RES ovarian
[5] = tested on: HCC-2998 colon
[6] = tested on: EKVX NSCLC
[7] = tested on: NCI-H23 lung
[8] = tested on: SNB-75 CNS
[9] = tested on: HCT-116 colon
[10] = tested on: MOLT-4 leukemia
[11] = tested on: CCRF-CEM leukemia

Structure (SMILES)	TGI [1]	TGI [2]	TGI [3]	TGI [4]	TGI [5]	TGI [6]	TGI [7]	TGI [8]	TGI [9]	TGI [10]	TGI [11]	GI50 [3]	GI50 [4]	GI50 [5]	GI50 [6]	GI50 [7]	GI50 [8]	GI50 [9]	GI50 [11]
O=c1oc2c/c(=C\c3ccccc3)c(=O)c3cccc1c3-2	53.9 µM	55.5 µM	48.6 µM	> 100 µM	> 100 µM	> 100 µM	> 100 µM	> 100 µM	71.2 µM	–	–	–	–	–	–	–	–	–	–
N#CCSc1c(-c2ccccc2)c(=O)n(-c2ccccc2)c(=S)n1-c1ccccc1	> 100 µM	> 100 µM	> 100 µM	> 100 µM	–	> 100 µM	> 100 µM	> 100 µM	> 100 µM	> 100 µM	> 100 µM	–	–	–	–	–	–	–	–
O=C(NN1C(=O)CSC1c1ccco1)c1ccncc1 (stereo not given)	> 100 µM	> 100 µM	> 100 µM	> 100 µM	> 100 µM	> 100 µM	> 100 µM	–	> 100 µM	> 100 µM	> 100 µM	–	–	–	–	–	–	–	–
CC(NC(=O)C(Cc1cnc[nH]1)NC(=O)C1CCC(=O)N1)C(N)=O (stereo not drawn) ([pGlu]-His-Ala-NH2; configuration not given here)	> 100 µM	> 100 µM	> 100 µM	–	> 100 µM	> 100 µM	> 100 µM	> 100 µM	> 100 µM	> 100 µM	> 100 µM	–	–	–	–	–	–	–	–
CCOC(=O)c1cn(CC)c2cc3c(cc2c1=O)CCS3(=O)=O	> 100 µM	> 100 µM	> 100 µM	> 100 µM	> 100 µM	> 100 µM	> 100 µM	–	> 100 µM	> 100 µM	> 100 µM	–	–	–	–	–	–	–	–
CC(C)(C)OC(=O)N1Cc2cc(O)ccc2C[C@H]1C(=O)O	> 100 µM	> 100 µM	–	> 100 µM	> 100 µM	> 100 µM	> 100 µM	> 100 µM	> 100 µM	> 100 µM	> 100 µM	–	–	–	–	–	–	–	–
O=C(O)CN(CC(=O)O)Cc1ccn(-c2cccc(-n3ccc(CN(CC(=O)O)CC(=O)O)n3)n2)n1	> 100 µM	> 100 µM	> 100 µM	> 100 µM	> 100 µM	> 100 µM	> 100 µM	> 100 µM	> 100 µM	> 100 µM	–	–	–	–	–	–	–	–	–
COc1ccc(NCc2cnc3nc(N)nc(N)c3c2C)cc1	> 100 µM	> 92.8 µM	> 100 µM	> 100 µM	> 31.6 µM	> 100 µM	> 100 µM	> 100 µM	–	> 100 µM	> 100 µM	–	–	–	–	–	–	–	–
N#CCOc1cccc(C2(N3CC=CCC3)CCCCC2)c1	> 100 µM	> 100 µM	> 100 µM	> 100 µM	–	> 100 µM	> 100 µM	–	> 100 µM	> 100 µM	> 100 µM	–	–	–	–	–	–	–	–
Cc1cc(C)c2c(=N)c3ccccc3n(CCCCCCn3c4ccccc4c(=N)c4c(C)cc(C)nc43)c2n1	0.816 µM	3.65 µM	3.07 µM	–	0.323 µM	3.29 µM	2.44 µM	1.43 µM	0.353 µM	–	0.565 µM	–	–	–	–	–	–	–	–
Cc1cc2c(cc1-c1cc3c(cc1C)C(C(C)C)=C(O)C(=O)/C3=C\Nc1c(C)n(C)n(-c3ccccc3)c1=O)/C(=C/Nc1c(C)n(C)n(-c3ccccc3)c1=O)C(=O)C(O)=C2C(C)C	> 100 µM	> 100 µM	> 100 µM	> 100 µM	–	> 100 µM	> 100 µM	> 100 µM	> 100 µM	> 100 µM	> 100 µM	–	–	–	–	–	–	–	–
CO[C@H]1C[C@H](n2cc(C)c(=O)[nH]c2=O)O[C@@H]1CO	> 100 µM	–	> 100 µM	> 100 µM	> 100 µM	> 100 µM	> 100 µM	> 100 µM	> 100 µM	> 100 µM	> 100 µM	–	–	–	–	–	–	–	–
Cc1c(O)c(=O)ccn1CCc1c[nH]c2ccccc12	9.06 µM	78 µM	40.2 µM	35.6 µM	–	91.7 µM	> 100 µM	–	> 100 µM	> 100 µM	–	–	–	–	–	–	–	–	–
CC1C2CC(CC2N)C1(C)C (stereo not given)	> 100 µM	> 100 µM	> 100 µM	–	> 100 µM	> 100 µM	> 100 µM	> 100 µM	> 100 µM	> 100 µM	> 100 µM	–	–	–	–	–	–	–	–
Cn1cc(-c2nc(-c3c[nH]c4ccncc34)cs2)c2cc(F)ccc21	–	–	3.37 µM	4.19 µM	3.08 µM	3.32 µM	3.25 µM	2.6 µM	3.28 µM	–	–	1.79 µM	1.93 µM	1.64 µM	1.72 µM	1.72 µM	1.26 µM	1.63 µM	–
COc1cc(/C=C2\N=C(C)N(n3c(-c4ccccc4)nc4ccccc4c3=O)C2=O)cc(OC)c1OC	> 100 µM	> 100 µM	> 100 µM	–	> 100 µM	> 100 µM	> 100 µM	> 100 µM	> 100 µM	> 100 µM	> 100 µM	–	–	–	–	–	–	–	–
COC(=O)c1c(O)ccc2c1c1c(n2Cc2ccccn2)C(=O)c2ccccc2C1=O	> 100 µM	> 100 µM	> 100 µM	> 100 µM	35 µM	> 100 µM	> 100 µM	–	> 100 µM	> 100 µM	> 100 µM	–	–	–	–	–	–	–	–
C/C(=N\NC(=O)c1cccnc1)c1cccc(/C(C)=N/NC(=O)c2cccnc2)n1.CC(=O)[O-].CC(=O)[O-].[Zn+2]	> 100 µM	–	> 47.2 µM	–	> 100 µM	> 100 µM	> 67 µM	98.2 µM	> 100 µM	11.4 µM	65.6 µM	–	–	0.995 µM	–	–	24.7 µM	1.68 µM	0.783 µM
COC(=O)[C@@]12OC[C@]34C([C@@H](O)C1O)[C@@]1(C)CC(=O)C(O)=C(C)C1C[C@H]3OC(=O)[C@H](OC(=O)/C=C(/c1ccccc1)C(F)(F)F)[C@H]42 (stereo not given in full)	> 25 µM	–	8.48 µM	–	8.04 µM	> 25 µM	6.73 µM	18.6 µM	12.3 µM	13.8 µM	> 25 µM	–	–	–	–	–	–	–	–
COc1ccc(S(=O)(=O)Nc2ccc(-c3csc(N4C(=O)/C(=C/c5ccccc5)N=C4c4ccccc4)n3)cc2)cc1Cl	> 100 µM	61.9 µM	71.9 µM	> 100 µM	–	–	54.8 µM	> 100 µM	> 100 µM	> 100 µM	> 100 µM	–	–	–	–	–	–	–	–
